# Assays:
# Format in all cases: in vivo, rats
# [1] = Distribution of Teraphtalum with the proposed regional method (branch of portal vein of target lobe with occlusion); settings: for Content of Teraphtalum: proposed method, 0.3 mg (0.6 ml, 0.01% solution), healthy rats
# Method: (§1) Practically speaking, the method is carried out in the following manner. A median laparotomy is conducted, afferent (a branch of the portal vein and hepatic artery) and efferent (a branch of the hepatic vein) vessels of the target lobe of the liver are isolated. They are taken on tourniquets. A puncture of the branch of the portal vein is made, the preparation is introduced therein, simultaneously stopping the flow of blood: the blood inflow—through branches of the portal vein (proximal to the place of puncture) and the hepatic artery, outflow—through a branch of the hepatic vein. Restoration of the blood flow is accomplished by removing clamps from the vessels 5–15 minutes after administration of the preparation.
# (§2) The studies were carried out on mongrel rats weighing 150 g, obtained from the N. V. Blokhin ONTs breeder and contained in the vivarium of that center.
# (§3) Teraphtalum in a dose of 60 or 300 μg per rat in the form of 0.6 ml of a 0.01 and 0.05% solution was administered into a branch of the portal vein of a target lobe of the liver.
# Accumulation of the preparation in the target lobe (subjected to occlusion), in the intact lobe of the liver (not subjected to occlusion) and also in the blood plasma were studied 5, 35 and 240 minutes after administration of the preparation by the proposed method.
# [2] = Effect of length of occlusion of afferent and abducent vessels on accumulation of Teraphtalum; settings: for Content of Teraphtalum: 35 min after administration
# Method: as §1, §3
# The results of a study of the effect of the length of the period of occlusion of the afferent and abducent vessels of the target lobe of the liver on the accumulation of TP therein are presented in Table 3.
# [3] = Distribution of Teraphtalum with the known regional administration (general trunk of portal vein); settings: known regional method, 5 mg/kg
# Method: as §2
# Teraphtalum (TP) was administered once into the general trunk of the portal vein in a dose of 5 mg/kg (this was 1 mg of TP for a rat weighing 200 g). Accumulation of the preparation in the liver, lungs and its level in blood plasma were evaluated by the spectrophotometric method 5, 35 and 240 minutes after the administration.
smiles,measurement,setting,value
"O=C(O)c1cc2c(cc1C(=O)O)C1=Nc3c4cc(C(=O)O)c(C(=O)O)cc4c4[n]3[Co][n]3c(c5cc(C(=O)O)c(C(=O)O)cc5c3=NC3=NC(=N4)c4cc(C(=O)O)c(C(=O)O)cc43)=NC2=N1 [Teraphtalum, cobalt octacarboxy phthalocyanine]","Concentration of TP in target lobe of liver, proposed method versus known regional method","[1]; first minutes after administration, dose in proposed method 16.5 times less",2 times higher
same,Content of Teraphtalum,"[1]; intact lobe of liver, 5 min",7 μg/g of untreated tissue
same,Content of Teraphtalum,"[1]; intact lobe of liver, 35 min",5 μg/g of untreated tissue
same,Content of Teraphtalum,"[1]; intact lobe of liver, 240 min",9 μg/g of untreated tissue
same,Content of Teraphtalum,"[1]; plasma, 5 min",3 μg/g of untreated tissue
same,Content of Teraphtalum,"[1]; target lobe of liver, 5 min",30 μg/g of untreated tissue
same,Content of Teraphtalum,"[1]; target lobe of liver, 35 min",33 μg/g of untreated tissue
same,Content of Teraphtalum,"[1]; target lobe of liver, 240 min",48 μg/g of untreated tissue
same,Content of Teraphtalum,"[2]; blood plasma, control = selective administration without occlusion",6 µg/g
same,Content of Teraphtalum,"[2]; blood plasma, occlusion 5 min, 0.3 mg (0.6 ml of 0.01% solution), proposed method",5 µg/g
same,Content of Teraphtalum,"[2]; blood plasma, occlusion 15 min, 0.3 mg (0.6 ml of 0.01% solution), proposed method",7 µg/g
same,Content of TP,"[2]; intact lobe of liver as worded in text, without occlusion (control), 30 minutes after administration",20 µg/g
same,Content of Teraphtalum,"[2]; intact lobe of liver, occlusion 5 min, 0.3 mg (0.6 ml of 0.01% solution), proposed method",7 µg/g
same,Content of Teraphtalum,"[2]; intact lobe of liver, occlusion 15 min, 0.3 mg (0.6 ml of 0.01% solution), proposed method",6 µg/g
same,Content of Teraphtalum,"[2]; intact lobe, control = selective administration without occlusion",17 µg/g
same,Content of Teraphtalum,"[2]; target lobe of liver, occlusion 5 min, 0.3 mg (0.6 ml of 0.01% solution), proposed method",35 µg/g
same,Content of Teraphtalum,"[2]; target lobe of liver, occlusion 15 min, 0.3 mg (0.6 ml of 0.01% solution), proposed method",35 µg/g
same,Content of Teraphtalum,"[2]; target lobe, control = selective administration without occlusion",20 µg/g
same,Content of TP,"[2]; that (target) lobe as worded in text, without occlusion (control), 30 minutes after administration",17 µg/g
same,Level of TP in the plasma,"[2]; without occlusion (control), 30 minutes after administration",6 μg/g of untreated tissue
same,Content of Teraphtalum,"[3]; liver, 5 min after administration",15 μg/g of untreated tissue
same,Content of Teraphtalum,"[3]; liver, 35 min after administration",60 μg/g of untreated tissue
same,Content of Teraphtalum,"[3]; liver, 240 min after administration",51 μg/g of untreated tissue
same,Content of Teraphtalum,"[3]; lungs, 5 min after administration",46 μg/g of untreated tissue
same,Content of Teraphtalum,"[3]; lungs, 35 min after administration",28 μg/g of untreated tissue
same,Content of Teraphtalum,"[3]; lungs, 240 min after administration",57 μg/g of untreated tissue
same,Content of Teraphtalum,"[3]; plasma, 5 min after administration",92.4 μg/g of untreated tissue
same,Content of Teraphtalum,"[3]; plasma, 35 min after administration",39.6 μg/g of untreated tissue
same,Content of Teraphtalum,"[3]; plasma, 240 min after administration",14.4 μg/g of untreated tissue
